Reference: patent US20090118253A1, “COMPOSITIONS AND METHODS FOR TREATING DYSFUNCTIONAL UTERINE BLEEDING” (REPROS THERAPEUTICS INC., priority 2007, published 2009)

Columns and labels:
[1] = Urinary progesterone levels (luteal phase) in cynomolgus monkeys; assay type: in vivo, Cynomolgus monkeys (Macaca fascicularis); conditions: n=14 per group; CDB-4124 or RU-486 oral 1.0 mg/kg/day for 36 weeks; Lupron IM once per month
Procedure: Cynomolgus monkeys (Macaca fascicularis) (n=14) were treated orally for 36 weeks with CDB-4124 or RU-486 at 1.0 mg/kg/day or with placebo (control). Another group (n=14) received Lupron® IM once per month. Urinary progesterone levels were measured for each animal for one month during the middle of the study (weeks 14-17) and for the last month of the study (weeks 33-36).

[2] = test system: Cynomolgus monkey endometrial epithelium, uterus stroma and breast; experiment: TUNEL apoptosis in cynomolgus monkey tissue; assay type: in vivo, Cynomolgus monkeys (Macaca fascicularis); conditions: week 36, percent apoptotic cells
Procedure: Apoptosis was assessed in tissue from the same animals on slides by the terminal deoxynucleotidyl transferase mediated dUTP-biotin nick end labeling (TUNEL) technique.

[3] = test system: pre-menopausal adult women diagnosed with endometriosis; experiment: Six month endometriosis study: side effects and bleeding events; assay type: in vivo, human
Procedure: Although this was a small study and no definitive conclusions can be made from the safety data, there was no single signal of safety observed.
A similar event was not seen at the 50 mg dose during the treatment phase. Greater than normal bleeding occurred in two patients in the 50 mg CDB-4124 group after treatment was stopped and a D&C was performed in one and the other successfully managed conservatively.

human endometrium = experiment: Six month endometriosis study: ultrasound measurements of endometrial thickness; assay type: in vivo; conditions: for Endometrium (mm), 1st dose: 1st dose visit; for Endometrium (mm), screening: screening (baseline)
Source text: Women in the study were closely monitored for changes in the structure of the endometrium. […] Comparisons were made to both baseline and visit one ultrasound measurements of endometrial thickness. […]

COCC(=O)[C@@]1(OC(C)=O)CC[C@H]2[C@@H]3CCC4=CC(=O)CCC4=C3[C@@H](c3ccc(N(C)C)cc3)C[C@@]21C [CDB-4124, 21-methoxy-17α-acetoxy-11β-(4 N,N-dimethylaminophenyl)-19-norpregna-4,9-diene-3,20-dione]
Decrease in luteal phase progesterone (number of animals) [1]: 8
No decrease in luteal phase progesterone (number of animals) [1]: 6
Breast Apo % [2]: 2.6 ± 0.9%
Uterus epithelium Apo % [2]: 0.5 ± 0.2%
Uterus stroma Apo % [2]: 0.5 ± 0.1%
cases of non-menstrual spotting and bleeding with excessive endometrial thickening needing D&C ([3]; 12.5 mg and 25 mg CDB-4124 groups, treatment phase): two cases
patients with greater than normal bleeding after treatment was stopped ([3]; 50 mg CDB-4124 group): two patients
non-menstrual spotting and bleeding with excessive endometrial thickening needing D&C ([3]; 50 mg dose, treatment phase): not seen
side effects ([3]; women, six month study): generally mild
women exhibiting thickened endometrium after three months (human endometrium; 12.5 mg dose (n=4)): two
Endometrium (mm), 1st dose (human endometrium; 12.5 mg): 8.0 mm
Endometrium (mm), 3 months (human endometrium; 12.5 mg): 20.33 mm
Endometrium (mm), screening (human endometrium; 12.5 mg): 7.5 mm
women exhibiting thickened endometrium after three months (human endometrium; 25 mg dose (n=4)): One
Endometrium (mm), 1st dose (human endometrium; 25 mg): 11.7 mm
Endometrium (mm), 3 months (human endometrium; 25 mg): 19.6 mm
Endometrium (mm), screening (human endometrium; 25 mg): 8.4 mm
women exhibiting thickened endometrium after three months (human endometrium; 50 mg dose (n=3)): none
Endometrium (mm), 1st dose (human endometrium; 50 mg): 10.8 mm
Endometrium (mm), 3 months (human endometrium; 50 mg): 7.7 mm
Endometrium (mm), screening (human endometrium; 50 mg): 8.0 mm
